From article PMC10041537, “Molecular origins of mutational spectra produced by the environmental carcinogen N-nitrosodimethylamine and SN1 chemotherapeutic agents” (NAR Cancer, 2023)

Legend:
mouse genome [1] = test: Duplex sequencing, high-resolution mutational spectra and pLOGO of liver and lung of NDMA-treated wild-type mice; type: in vivo, gptΔ C57BL/6J mice
Procedure: (§1) Most experiments utilized C57BL/6J gptΔ transgenic mice ([49],[50]), a gift from T. Nohmi. Some experiments used RaDR^R/R;gpt^g/g;Mgmt^−/− mice, which were created by crossing RaDR^R/R;gpt^g/gmice ([37]) with Mgmt^−/− mice ([51]). NDMA was synthesized and characterized as previously described ([52]) (Fig. S1). […] The first dose (3.5 mg/kg in 10 μl) was administered at 8 days of age, and the second dose (7 mg/kg in 20 μl) was administered at 15 days of age. Vehicle treated mice were administered equivalent volumes of saline. Mice were euthanized at ten weeks post-injection by CO2 inhalation. Both male and female mice were used in all experimental groups (n = 5) in all mouse experiments.
(§2) To determine the identity of mutations and the sequence contexts in which they occur, we utilized a form of error-corrected sequencing called duplex sequencing (DS). Previously, we described how DS can be used directly on genomic samples derived from the gptΔ mouse to yield high-resolution mutational spectra in an unbiased (unselected) manner ([49]). Unlike the traditional gptΔ assay, DS evaluates the mutations throughout the entire 6382 bp transgenic region (which contains the gpt gene), without the need for a phenotypic selection. In the present work, 6.4 kb gpt-containing plasmids from gptΔ mouse livers and cell culture were isolated using a Miniprep Kit (Qiagen) following instructions of the manufacturer. Approximately 6 μg of plasmid DNA was diluted in 1× TE buffer-low EDTA, pH 8 (Thermo Scientific), transferred to a microTUBE AFA Fiber Pre-Slit Snap-Cap (Covaris) and sonicated using a Covaris E220 Focused-ultrasonicator. The following program was used to obtain 300–350 bp fragments: peak incident power = 140 W, duty factor = 10%, cycles per burst = 200, treatment time = 80 s, temperature = 4–7°C. DS libraries for gptΔ C57BL/6J mice and MEFs were prepared using the NEBNext Ultra II DNA Library Prep (E7103, NEB) or as described in Chawanthayatham et al. ([49]) and sequenced on a NextSeq500 or NovaSeq 6000 Illumina platform by using a 150 bp paired-end protocol (MIT BioMicro Center). DS libraries for the gptΔ mouse lungs and Mgmt^−/− mice were prepared using an input of 1 μg or 500 ng genomic DNA, respectively, using a TwinStrand Biosciences, Inc. Mouse Mutagenesis Kit according to the manufacturer's protocol. This kit uses probes that hybridize to 20 genomic regions, each 2.4 kb long. The genomic coordinates are provided in Supplementary Table S1. These probes were purposely selected to map in intronic and intergenic regions, to avoid selection bias. The libraries were sequenced on an Illumina NovaSeq 6000 DNA sequencer on an S4 flow cell using a 150 bp paired-end protocol (MIT BioMicro Center).
(§3) For each sample, the two fastq files generated by the Illumina sequencer were converted into an unaligned bam file, using Picard Tools. The resulting bam file was processed using UnifiedConsensusMaker.py (version 3.0) as available from the Kennedy Lab at University of Washington (https://github.com/Kennedy-Lab-UW/Duplex-Sequencing). Briefly, this program queries the molecular tags on each read and assembles them into families (strands with the same tag). These are subsequently collapsed into single-strand consensus sequences (SSCS). Then, the software identifies the SSCS corresponding to the complementary strand; these are grouped together as a double-strand consensus sequence (DCS). Unpaired SSCSs were flagged and ignored for the rest of the analysis. Sequence information was accepted only when the information from the two complementary DNA strands was in perfect agreement. The DCSs (as fastq files) were subsequently aligned to the target region (6382 nt in the λ-EG10 genome) using Burrows-Wheeler aligner. Unmapped reads were filtered out. Finally, the properly aligned DCS reads were trimmed (bases 1–8 and 120–137) and collapsed into a pileup file using SamTools. […]

mouse genome [2] = test: Duplex sequencing, high-resolution mutational spectra and pLOGO of liver of NDMA-treated Mgmt−/− mice; type: in vivo
Procedure: as §1, §2, §3

C57BL/6J mice = tested on: C57BL/6J mice; parameters: method as in PMID 9500198; settings: cited from earlier work
human = tested on: human; parameters: method as in PMID 21141240; settings: cited from earlier work
[3] = C at -6 relative to G→A mutation, liver, WT mice
[4] = C57BL/6J male mice, neonatal model

CN(C)N=O [NDMA, N-nitrosodimethylamine]
pLOGO Frequency (%) (mouse genome [1]; A at 1, lung, WT mice): 32.2%
pLOGO Value (log-odds binomial probability) (mouse genome [1]; A at 1, lung, WT mice): 5.89
pLOGO Frequency (%) (mouse genome [1]; A at 2, lung, WT mice): 32.0%
pLOGO Value (log-odds binomial probability) (mouse genome [1]; A at 2, lung, WT mice): 4.51
pLOGO Frequency (%) (mouse genome [1]; A at 3, liver, WT mice): 28.4%
pLOGO Value (log-odds binomial probability) (mouse genome [1]; A at 3, liver, WT mice): 4.00
pLOGO Frequency (%) (mouse genome [1]; A at -1, liver, WT mice): 30.9%
pLOGO Value (log-odds binomial probability) (mouse genome [1]; A at -1, liver, WT mice): 52.74
pLOGO Frequency (%) (mouse genome [1]; A at -1, lung, WT mice): 45.9%
pLOGO Value (log-odds binomial probability) (mouse genome [1]; A at -1, lung, WT mice): 37.22
pLOGO Frequency (%) (mouse genome [1]; A at -2, lung, WT mice): 34.3%
pLOGO Value (log-odds binomial probability) (mouse genome [1]; A at -2, lung, WT mice): 6.29
pLOGO Frequency (%) (mouse genome [1]; C at 1, liver, WT mice): 38.4%
pLOGO Value (log-odds binomial probability) (mouse genome [1]; C at 1, liver, WT mice): 27.34
pLOGO Frequency (%) (mouse genome [1]; C at 4, liver, WT mice): 26.0%
pLOGO Value (log-odds binomial probability) (mouse genome [1]; C at 4, liver, WT mice): 6.07
pLOGO Frequency (%) (mouse genome [1]; C at -3, liver, WT mice): 31.4%
pLOGO Value (log-odds binomial probability) (mouse genome [1]; C at -3, liver, WT mice): 22.96
pLOGO Frequency (%) (mouse genome [1]; C at -5, liver, WT mice): 26.7%
pLOGO Value (log-odds binomial probability) (mouse genome [1]; C at -5, liver, WT mice): 4.79
pLOGO Frequency (%) (mouse genome [1]; [3]): 28.0%
pLOGO Value (log-odds binomial probability) (mouse genome [1]; [3]): 3.68
pLOGO Frequency (%) (mouse genome [1]; G at -1, liver, WT mice): 47.4%
pLOGO Value (log-odds binomial probability) (mouse genome [1]; G at -1, liver, WT mice): 193.23
pLOGO Frequency (%) (mouse genome [1]; G at -1, lung, WT mice): 39.2%
pLOGO Value (log-odds binomial probability) (mouse genome [1]; G at -1, lung, WT mice): 64.57
pLOGO Frequency (%) (mouse genome [1]; T at 1, liver, WT mice): 23.8%
pLOGO Value (log-odds binomial probability) (mouse genome [1]; T at 1, liver, WT mice): 4.97
pLOGO Frequency (%) (mouse genome [1]; T at 1, lung, WT mice): 29.1%
pLOGO Value (log-odds binomial probability) (mouse genome [1]; T at 1, lung, WT mice): 10.31
sequence context dependency of GC→AT mutations (mouse genome [1]; WT mice, Pu = purine, N = any base): 5’-PuGN-3’
AT→GC mutations, proportion of total number of mutations (mouse genome [1]; WT mice, after background subtraction): 4.6%
dominant mutation type of mutational spectrum (mouse genome [1]; liver and lung of WT mice, 10 weeks post NDMA): GC→AT transition mutations
pLOGO Frequency (%) (mouse genome [2]; A at 1, liver, Mgmt−/− mice): 31.4%
pLOGO Value (log-odds binomial probability) (mouse genome [2]; A at 1, liver, Mgmt−/− mice): 47.10
pLOGO Frequency (%) (mouse genome [2]; A at 2, liver, Mgmt−/− mice): 31.0%
pLOGO Value (log-odds binomial probability) (mouse genome [2]; A at 2, liver, Mgmt−/− mice): 26.02
pLOGO Frequency (%) (mouse genome [2]; A at 3, liver, Mgmt−/− mice): 29.4%
pLOGO Value (log-odds binomial probability) (mouse genome [2]; A at 3, liver, Mgmt−/− mice): 12.99
pLOGO Frequency (%) (mouse genome [2]; A at 5, liver, Mgmt−/− mice): 28.3%
pLOGO Value (log-odds binomial probability) (mouse genome [2]; A at 5, liver, Mgmt−/− mice): 3.94
pLOGO Frequency (%) (mouse genome [2]; A at -1, liver, Mgmt−/− mice): 42.5%
pLOGO Value (log-odds binomial probability) (mouse genome [2]; A at -1, liver, Mgmt−/− mice): 256.46
pLOGO Frequency (%) (mouse genome [2]; A at -2, liver, Mgmt−/− mice): 32.8%
pLOGO Value (log-odds binomial probability) (mouse genome [2]; A at -2, liver, Mgmt−/− mice): 29.44
pLOGO Frequency (%) (mouse genome [2]; A at -3, liver, Mgmt−/− mice): 29.2%
pLOGO Value (log-odds binomial probability) (mouse genome [2]; A at -3, liver, Mgmt−/− mice): 4.17
pLOGO Frequency (%) (mouse genome [2]; C at 2, liver, Mgmt−/− mice): 24.5%
pLOGO Value (log-odds binomial probability) (mouse genome [2]; C at 2, liver, Mgmt−/− mice): 22.44
pLOGO Frequency (%) (mouse genome [2]; G at 4, liver, Mgmt−/− mice): 23.1%
pLOGO Value (log-odds binomial probability) (mouse genome [2]; G at 4, liver, Mgmt−/− mice): 13.22
pLOGO Frequency (%) (mouse genome [2]; G at 5, liver, Mgmt−/− mice): 22.8%
pLOGO Value (log-odds binomial probability) (mouse genome [2]; G at 5, liver, Mgmt−/− mice): 3.76
pLOGO Frequency (%) (mouse genome [2]; G at 6, liver, Mgmt−/− mice): 24.8%
pLOGO Value (log-odds binomial probability) (mouse genome [2]; G at 6, liver, Mgmt−/− mice): 20.10
pLOGO Frequency (%) (mouse genome [2]; G at 7, liver, Mgmt−/− mice): 24.2%
pLOGO Value (log-odds binomial probability) (mouse genome [2]; G at 7, liver, Mgmt−/− mice): 4.88
pLOGO Frequency (%) (mouse genome [2]; G at -1, liver, Mgmt−/− mice): 41.6%
pLOGO Value (log-odds binomial probability) (mouse genome [2]; G at -1, liver, Mgmt−/− mice): 324
pLOGO Frequency (%) (mouse genome [2]; G at -2, liver, Mgmt−/− mice): 24.3%
pLOGO Value (log-odds binomial probability) (mouse genome [2]; G at -2, liver, Mgmt−/− mice): 23.51
pLOGO Frequency (%) (mouse genome [2]; G at -3, liver, Mgmt−/− mice): 22.9%
pLOGO Value (log-odds binomial probability) (mouse genome [2]; G at -3, liver, Mgmt−/− mice): 4.27
pLOGO Frequency (%) (mouse genome [2]; G at -4, liver, Mgmt−/− mice): 22.6%
pLOGO Value (log-odds binomial probability) (mouse genome [2]; G at -4, liver, Mgmt−/− mice): 5.86
pLOGO Frequency (%) (mouse genome [2]; G at -5, liver, Mgmt−/− mice): 22.8%
pLOGO Value (log-odds binomial probability) (mouse genome [2]; G at -5, liver, Mgmt−/− mice): 4.67
pLOGO Frequency (%) (mouse genome [2]; G at -6, liver, Mgmt−/− mice): 23.9%
pLOGO Value (log-odds binomial probability) (mouse genome [2]; G at -6, liver, Mgmt−/− mice): 4.72
AT→GC mutations, proportion of mutations (mouse genome [2]; Mgmt−/− mice): 1.7%
pLOGO Frequency (%) (mouse genome [2]; T at -2, liver, Mgmt−/− mice): 24.7%
pLOGO Value (log-odds binomial probability) (mouse genome [2]; T at -2, liver, Mgmt−/− mice): 9.33
sequence context of GC→AT mutations (mouse genome [2]; liver of Mgmt−/− mice): 5’-PuGN-3’
dominant single-base substitution (mouse genome [2]; liver of Mgmt−/− mice, 10 weeks post NDMA): GC→AT mutations
cosine similarity of mutational patterns in Mgmt−/− and WT mice (mouse genome [2]; liver, baseline-corrected, normalized spectra): 0.98
incidence of hepatic tumors (C57BL/6J mice; [4]): ~80%
incidence of lung tumors (C57BL/6J mice; [4]): 7%
maximum tolerated dose (C57BL/6J mice; total dose, i.p., neonatal mice): 10.5 mg/kg
IARC classification (human): probable (Group 2A) human carcinogen
